Results reported in patent US12545639B2, “3-substituted phenylamidine compounds, preparation and use thereof” (PI INDUSTRIES LTD., priority 2019, dated 2026).

How the values were obtained:
Pyricularia oryzae = assay: microbe, parasite or virus in culture; format: cell-based; settings: 168 h, read-out: control compared to the untreated check (radial growth)
Rhizoctonia solani = Rhizoctonia solani (rice sheath blight/potato black scurf) in vitro test, radial growth on potato dextrose agar; format: cell-based; settings: 168 h, 300 ppm in potato dextrose agar, 25° C., 60% relative humidity, seven days, read-out: control compared to the untreated check (radial growth)
Botrytis cinerea = Botrytis cinerea (gray mold) in vitro test, radial growth on potato dextrose agar; format: cell-based; settings: 168 h, 300 ppm in potato dextrose agar, 22° C., 90% relative humidity, seven days, read-out: control compared to the untreated check (radial growth)
Alternaria solani = Alternaria solani (early blight of tomato/potato) in vitro test, radial growth on potato dextrose agar; format: cell-based; settings: 168 h, 300 ppm in potato dextrose agar, 25° C., 60% relative humidity, seven days, read-out: control compared to the untreated check (radial growth)
Colletotrichum capsici = Colletotrichum capsici (anthracnose) in vitro test, radial growth on potato dextrose agar; format: cell-based; settings: Colletotrichum truncatum, 168 h; 300 ppm in potato dextrose agar; 25° C., 60% relative humidity, seven days; read-out: control compared to the untreated check (radial growth)
[1] = test system: Septoria lycopersici/Corynespora cassicola (CORYCA); assay: Septoria lycopersici/Corynespora cassicola (CORYCA) (leaf spot of tomato) in vitro test, radial growth on potato dextrose agar; format: cell-based; settings: 168 h, 300 ppm in potato dextrose agar, 25° C., 70% relative humidity, seven days, read-out: control compared to the untreated check (radial growth)
Phakopsora pachyrhizi = Phakopsora pachyrhizi test in soybean, preventive, in vivo on plants; settings: in Glycine max, read-out: Efficacy (% control), disease severity compared to the untreated check

CCN(C)C=Nc1cc(F)cc(Cc2cccc(Cl)c2)c1C [Compound 144, N′-(3-(3-chlorobenzyl)-5-fluoro-2-methylphenyl)-N-ethyl-N-methylformimidamide]
≥ 70%: inhibition of growth at 300 ppm (Pyricularia oryzae) | inhibition of growth at 300 ppm (Rhizoctonia solani) | inhibition of growth at 300 ppm (Botrytis cinerea) | inhibition of growth at 300 ppm (Alternaria solani) | inhibition of growth at 300 ppm (Colletotrichum capsici) | inhibition of growth at 300 ppm [1] | pest or weed control at 500 ppm (Phakopsora pachyrhizi)

CCN(C)C=Nc1cc(Cl)cc(Cc2ccccc2Cl)c1C [Compound 89, N′-(5-chloro-3-(2-chlorobenzyl)-2-methylphenyl)-N-ethyl-N-methylformimidamide]
≥ 70%: inhibition of growth at 300 ppm (Pyricularia oryzae) | inhibition of growth at 300 ppm (Rhizoctonia solani) | inhibition of growth at 300 ppm (Botrytis cinerea) | inhibition of growth at 300 ppm (Alternaria solani) | inhibition of growth at 300 ppm (Colletotrichum capsici) | inhibition of growth at 300 ppm [1] | pest or weed control at 500 ppm (Phakopsora pachyrhizi)

CCN(C)C=Nc1cc(C)cc(Nc2cccc(C(C)C)c2)c1Cl [Compound 58, N′-(2-chloro-3-((3-isopropylphenyl)amino)-5-methylphenyl)-N-ethyl-N-methylformimidamide]
≥ 70%: inhibition of growth at 300 ppm (Pyricularia oryzae) | inhibition of growth at 300 ppm (Rhizoctonia solani) | inhibition of growth at 300 ppm (Botrytis cinerea) | inhibition of growth at 300 ppm (Alternaria solani) | inhibition of growth at 300 ppm (Colletotrichum capsici) | inhibition of growth at 300 ppm [1] | pest or weed control at 500 ppm (Phakopsora pachyrhizi)

CCN(C)C=Nc1cc(C)cc(Cc2ccc(Br)cc2F)c1Cl [Compound 217, N′-(3-(4-bromo-2-fluorobenzyl)-2-chloro-5-methylphenyl)-N-ethyl-N-methylformimidamide]
≥ 70%: inhibition of growth at 300 ppm (Pyricularia oryzae) | inhibition of growth at 300 ppm (Rhizoctonia solani) | inhibition of growth at 300 ppm (Botrytis cinerea) | inhibition of growth at 300 ppm (Alternaria solani) | inhibition of growth at 300 ppm (Colletotrichum capsici) | inhibition of growth at 300 ppm [1] | pest or weed control at 500 ppm (Phakopsora pachyrhizi)

CCN(C)C=Nc1cc(F)cc(Cc2ccccc2C(F)(F)F)c1C [Compound 143, N-ethyl-N′-(5-fluoro-2-methyl-3-(2-(trifluoromethyl)benzyl)phenyl)-N-methylformimidamide]
≥ 70%: inhibition of growth at 300 ppm (Pyricularia oryzae) | inhibition of growth at 300 ppm (Rhizoctonia solani) | inhibition of growth at 300 ppm (Botrytis cinerea) | inhibition of growth at 300 ppm (Alternaria solani) | inhibition of growth at 300 ppm (Colletotrichum capsici) | inhibition of growth at 300 ppm [1] | pest or weed control at 500 ppm (Phakopsora pachyrhizi)

CCN(C)C=Nc1cc(F)cc(Nc2ccccc2F)c1C [Compound 19, N-ethyl-N′-(5-fluoro-3-((2-fluorophenyl)amino)-2-methylphenyl)-N-methylformimidamide]
≥ 70%: inhibition of growth at 300 ppm (Pyricularia oryzae) | inhibition of growth at 300 ppm (Rhizoctonia solani) | inhibition of growth at 300 ppm (Botrytis cinerea) | inhibition of growth at 300 ppm (Alternaria solani) | inhibition of growth at 300 ppm (Colletotrichum capsici) | inhibition of growth at 300 ppm [1]

CCN(C)C=Nc1cc(F)cc(Cc2cccc(C(F)(F)F)c2)c1C [Compound 201, N-ethyl-N′-(5-fluoro-2-methyl-3-(3-(trifluoromethyl)benzyl)phenyl)-N-methylformimidamide]
≥ 70%: inhibition of growth at 300 ppm (Pyricularia oryzae) | inhibition of growth at 300 ppm (Rhizoctonia solani) | inhibition of growth at 300 ppm (Botrytis cinerea) | inhibition of growth at 300 ppm (Alternaria solani) | inhibition of growth at 300 ppm (Colletotrichum capsici) | inhibition of growth at 300 ppm [1] | pest or weed control at 500 ppm (Phakopsora pachyrhizi)

CCN(C)C=Nc1cc(C)cc(Cc2cccc(F)c2)c1Br [Compound 189, N′-(2-bromo-3-(3-fluorobenzyl)-5-methylphenyl)-N-ethyl-N-methylformimidamide]
≥ 70%: inhibition of growth at 300 ppm (Pyricularia oryzae) | inhibition of growth at 300 ppm (Rhizoctonia solani) | inhibition of growth at 300 ppm (Alternaria solani) | inhibition of growth at 300 ppm (Colletotrichum capsici) | inhibition of growth at 300 ppm [1] | pest or weed control at 500 ppm (Phakopsora pachyrhizi)

CCN(C)C=Nc1cc(C)cc(Nc2ccccc2C)c1Cl [Compound 24, N′-(2-chloro-5-methyl-3-(o-tolylamino)phenyl)-N-ethyl-N-methylformimidamide]
≥ 70%: inhibition of growth at 300 ppm (Pyricularia oryzae) | inhibition of growth at 300 ppm (Rhizoctonia solani) | inhibition of growth at 300 ppm (Botrytis cinerea) | inhibition of growth at 300 ppm (Alternaria solani) | inhibition of growth at 300 ppm (Colletotrichum capsici) | inhibition of growth at 300 ppm [1]

CCN(C)C=Nc1cc(Cl)cc(Cc2ccc(F)c(C)c2)c1C [Compound 128, N′-(5-chloro-3-(4-fluoro-3-methylbenzyl)-2-methylphenyl)-N-ethyl-N-methylformimidamide]
≥ 70%: inhibition of growth at 300 ppm (Pyricularia oryzae) | inhibition of growth at 300 ppm (Rhizoctonia solani) | inhibition of growth at 300 ppm (Botrytis cinerea) | inhibition of growth at 300 ppm (Alternaria solani) | inhibition of growth at 300 ppm (Colletotrichum capsici) | inhibition of growth at 300 ppm [1] | pest or weed control at 500 ppm (Phakopsora pachyrhizi)

CCN(C)C=Nc1cc(C)cc(N(C)c2ncc(Cl)cc2C)c1Cl [Compound 118, N′-(2-chloro-3-((5-chloro-3-methylpyridin-2-yl)(methyl)amino)-5-methylphenyl)-N-ethyl-N-methylformimidamide]
≥ 70%: inhibition of growth at 300 ppm (Pyricularia oryzae) | inhibition of growth at 300 ppm (Botrytis cinerea) | inhibition of growth at 300 ppm (Alternaria solani) | inhibition of growth at 300 ppm (Colletotrichum capsici) | inhibition of growth at 300 ppm [1]

CCN(C)C=Nc1cc(F)cc(Nc2cc(F)cc(Cl)c2)c1C [Compound 96, N′-(3-((3-chloro-5-fluorophenyl)amino)-5-fluoro-2-methylphenyl)-N-ethyl-N-methylformimidamide]
≥ 70%: inhibition of growth at 300 ppm (Pyricularia oryzae) | inhibition of growth at 300 ppm (Rhizoctonia solani) | inhibition of growth at 300 ppm (Botrytis cinerea) | inhibition of growth at 300 ppm (Alternaria solani) | inhibition of growth at 300 ppm (Colletotrichum capsici) | inhibition of growth at 300 ppm [1]

CCN(C)C=Nc1cc(F)cc(Nc2ccccc2C)c1C [Compound 15, N-ethyl-N′-(5-fluoro-2-methyl-3-(o-tolylamino)phenyl)-N-methylformimidamide]
≥ 70%: inhibition of growth at 300 ppm (Pyricularia oryzae) | inhibition of growth at 300 ppm (Rhizoctonia solani) | inhibition of growth at 300 ppm (Botrytis cinerea) | inhibition of growth at 300 ppm (Alternaria solani) | inhibition of growth at 300 ppm (Colletotrichum capsici) | inhibition of growth at 300 ppm [1]

CCN(C)C=Nc1cc(C)cc(Nc2cccc(C)c2F)c1Cl [Compound 123, N′-(2-chloro-3-((2-fluoro-3-methylphenyl)amino)-5-methylphenyl)-N-ethyl-N-methylformimidamide]
≥ 70%: inhibition of growth at 300 ppm (Pyricularia oryzae) | inhibition of growth at 300 ppm (Botrytis cinerea) | inhibition of growth at 300 ppm (Alternaria solani) | inhibition of growth at 300 ppm (Colletotrichum capsici) | inhibition of growth at 300 ppm [1] | pest or weed control at 500 ppm (Phakopsora pachyrhizi)

CCN(C)C=Nc1cc(Cl)cc(N(C)c2cnccn2)c1C [Compound 213, N′-(5-chloro-2-methyl-3-(methyl(pyrazin-2-yl)amino)phenyl)-N-ethyl-N-methylformimidamide]
≥ 70%: inhibition of growth at 300 ppm (Pyricularia oryzae) | inhibition of growth at 300 ppm (Rhizoctonia solani) | inhibition of growth at 300 ppm (Botrytis cinerea) | inhibition of growth at 300 ppm (Alternaria solani) | inhibition of growth at 300 ppm (Colletotrichum capsici) | inhibition of growth at 300 ppm [1]

CCN(C)C=Nc1cc(C)cc(Cc2ccccc2F)c1C [Compound 219, N-ethyl-N′-(3-(2-fluorobenzyl)-2,5-dimethylphenyl)-N-methylformimidamide]
≥ 70%: inhibition of growth at 300 ppm (Pyricularia oryzae) | inhibition of growth at 300 ppm (Rhizoctonia solani) | inhibition of growth at 300 ppm (Alternaria solani) | inhibition of growth at 300 ppm (Colletotrichum capsici) | inhibition of growth at 300 ppm [1] | pest or weed control at 500 ppm (Phakopsora pachyrhizi)

CCN(C)C=Nc1cc(F)cc(Nc2cccc(Cl)c2)c1C [Compound 37, N′-(3-((3-chlorophenyl)amino)-5-fluoro-2-methylphenyl)-N-ethyl-N-methylformimidamide]
≥ 70%: inhibition of growth at 300 ppm (Pyricularia oryzae) | inhibition of growth at 300 ppm (Rhizoctonia solani) | inhibition of growth at 300 ppm (Botrytis cinerea) | inhibition of growth at 300 ppm (Alternaria solani) | inhibition of growth at 300 ppm (Colletotrichum capsici) | inhibition of growth at 300 ppm [1]

CCN(C)C=Nc1cc(F)cc(Nc2cc(C)ccc2Cl)c1C [Compound 113, N′-(3-((2-chloro-5-methylphenyl)amino)-5-fluoro-2-methylphenyl)-N-ethyl-N-methylformimidamide]
≥ 70%: inhibition of growth at 300 ppm (Pyricularia oryzae) | inhibition of growth at 300 ppm (Rhizoctonia solani) | inhibition of growth at 300 ppm (Alternaria solani) | inhibition of growth at 300 ppm (Colletotrichum capsici) | inhibition of growth at 300 ppm [1] | pest or weed control at 500 ppm (Phakopsora pachyrhizi)

CCN(C)C=Nc1cc(C)cc(Nc2ccccc2)c1Cl [Compound 9, N′-(2-chloro-5-methyl-3-(phenylamino)phenyl)-N-ethyl-N-methylformimidamide]
≥ 70%: inhibition of growth at 300 ppm (Pyricularia oryzae) | inhibition of growth at 300 ppm (Rhizoctonia solani) | inhibition of growth at 300 ppm (Botrytis cinerea) | inhibition of growth at 300 ppm (Alternaria solani) | inhibition of growth at 300 ppm (Colletotrichum capsici) | inhibition of growth at 300 ppm [1]

CCN(C)C=Nc1cc(C)cc(Nc2ccccc2F)c1Cl [Compound 23, N′-(2-chloro-3-((2-fluorophenyl)amino)-5-methylphenyl)-N-ethyl-N-methylformimidamide]
≥ 70%: inhibition of growth at 300 ppm (Pyricularia oryzae) | inhibition of growth at 300 ppm (Rhizoctonia solani) | inhibition of growth at 300 ppm (Alternaria solani) | inhibition of growth at 300 ppm (Colletotrichum capsici) | inhibition of growth at 300 ppm [1] | pest or weed control at 500 ppm (Phakopsora pachyrhizi)

CCN(C)C=Nc1cc(F)cc(N(C)c2ccccc2)c1C [Compound 11, N-ethyl-N′-(5-fluoro-2-methyl-3-(methyl(phenyl)amino)phenyl)-N-methylformimidamide]
≥ 70%: inhibition of growth at 300 ppm (Rhizoctonia solani) | inhibition of growth at 300 ppm (Botrytis cinerea) | inhibition of growth at 300 ppm (Alternaria solani) | inhibition of growth at 300 ppm (Colletotrichum capsici) | inhibition of growth at 300 ppm [1]
